The values that follow come from patent US8163754B2, “Purine derivatives for use as adenosine A-2A receptor agonists” (Novartis AG, priority 2004, dated 2012).

Structures can show the parent of a compound that is named as a salt.

Sequence of adenosine A2A receptor (P29274 whole entry): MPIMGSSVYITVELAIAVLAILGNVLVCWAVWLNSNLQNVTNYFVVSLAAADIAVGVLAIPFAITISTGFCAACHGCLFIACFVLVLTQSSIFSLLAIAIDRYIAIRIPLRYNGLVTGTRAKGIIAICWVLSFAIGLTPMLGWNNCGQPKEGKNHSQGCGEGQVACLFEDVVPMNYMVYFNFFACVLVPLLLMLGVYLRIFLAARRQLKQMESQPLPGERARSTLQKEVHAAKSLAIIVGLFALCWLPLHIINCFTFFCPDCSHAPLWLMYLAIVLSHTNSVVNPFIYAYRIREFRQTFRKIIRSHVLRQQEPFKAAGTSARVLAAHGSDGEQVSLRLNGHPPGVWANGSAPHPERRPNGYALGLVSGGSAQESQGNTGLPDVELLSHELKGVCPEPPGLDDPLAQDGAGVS

This experiment deals with adenosine A2A receptor (Homo sapiens, UniProt P29274). Kind of experiment: A2A receptor agonist assay, method of Murphree et al, Molecular Pharmacology 61, 455-462 (2002). It counts as binding. Particulars: method of L. J. Murphree et al. The text has this:
Compounds of formula I and their pharmaceutically acceptable salts are useful as pharmaceuticals. In particular, they activate the adenosine A2A receptor, i.e. they act as A2A receptor agonists.
Regarding `CCC(=O)N[C@H]1C[C@@H](n2cnc3c(N)nc(NCCc4ccccc4)nc32)[C@H](O)[C@@H]1O` [Example 2, N-[(1S,2R,3S,4R)-4-(6-Amino-2-phenethylamino-purin-9-yl)-2,3-dihydroxy-cvclcpentyl]-propionamide trifluoroacetate], the Ki (as a rule, the dissociation constant of the complex between target and ligand, obtained from inhibition or displacement) was determined as 18 nM.

`CCCCC#Cc1nc(NCC(c2ccccc2)c2ccccc2)c2ncn([C@@H]3C[C@H](NC(=O)CC)[C@@H](O)[C@H]3O)c2n1` [Example 6, N-{(1S,2R,3S,4R)-4-[6-(2,2-Diphenyl-ethylamino)-2-hex-1-ynyl-purin-9-yl]-2,3-dihydroxy-cyclopentyl}-propionamide] returned a Ki of 8 nM.

`NC1CCN(c2nc(NCC(c3ccccc3)c3ccccc3)c3ncn(C4CC(NC(=O)C5CCC5)C(O)C4O)c3n2)C1` [Example 33, Cyclobutanecarboxylic acid {(1S,2R,3S,4R)-4-[2-((R)-3-amino-pyrrolidin-1-yl)-6-(2,2-diphenyl-ethylamino-3)-purin-9-yl]-2,3-dihydroxy-cyclopentyl}-amide] registered a Ki of 52 nM.

In the case of `CCC(=O)N[C@H]1C[C@@H](n2cnc3c(NCC(c4ccccc4)c4ccccc4)nc(C(=O)NCCNC(=O)NC4CCN(c5ccccn5)CC4)nc32)[C@H](O)[C@@H]1O` [Example 38, 9-((1R,2S,3R,4S)-2,3-Dihydroxy-4-propionylamino-cyclopentyl)-6-(2,2-diphenyl-ethylamino)-9H-purine-2-carboxylic acid {2-[3-(3,4,5,6-tetrahydro-2H-[1,2]bipyridinyl-4-yl)ureido]-ethyl}-amide], the affinity, expressed as Ki, was 2 nM.

`CCC(=O)N[C@H]1C[C@@H](n2cnc3c(NCC(c4ccccc4)c4ccccc4)nc(N4CC[C@@H](NC(=O)N[C@@H]5CCNC5)C4)nc32)[C@H](O)[C@@H]1O` [Example 39, N-((1S,2R,3S,4R)-4-{6-(2,2-Diphenyl-ethylamino)-2-[(R)-3-((R)-3-pyrrolidin-3-ylureido)-pyrrolidin-1-yl]-purin-9-yl}-2,3-dihydroxy-cyclopentyl)-propionamide trifluoroacetate]: the Ki came to 3 nM.

For `CCC(=O)N[C@H]1C[C@@H](n2cnc3c(NCC(c4ccccc4)c4ccccc4)nc(C(=O)NCCNC(=O)N[C@H]4CCN(c5ccccn5)C4)nc32)[C@H](O)[C@@H]1O` [Example 47, 9-((1R,2S,3R,4S)-2,3-Dihydroxy-4-propionylamino-cyclopentyl)-6-(2,2-diphenyl-ethylamino)-9H-purine-2-carboxylic acid {2-[3-((S)-1-pyridin-2-yl-pyrrolidin-3-yl)-ureido]-ethyl}-amide trifluoroacetate], affinity was put at a Ki of 2 nM.

In turn, `CCC(=O)N[C@H]1C[C@@H](n2cnc3c(NCCC(c4ccccc4)c4ccccc4)nc(NCCc4cn(CC)cn4)nc32)[C@H](O)[C@@H]1O` [Example 61, N-((1S,2R,3S,4R)-4-{6-(3,3-diphenyl-propyl-amino)-2-[2-(1-ethyl-1H-imidazol-4-yl)-ethylamino]-purin-9-yl-2,3-dihydroxy-cyclopentyl}-propionamide trifluoroacetate] came in with a Ki of 9 nM.
